Measured values published in patent US8933074B2, “1,2-disubstituted heterocyclic compounds” (FORUM Pharmaceuticals Inc., priority 2008, dated 2015).

Molecular target: Human PDE10A1 (Homo sapiens, UniProt Q9Y233)
Experiment: hPDE10A1 enzyme inhibition
Assay type: biochemical
Details: [3H]-cAMP substrate, 20 minutes at 37° C.; read-out: hPDE10A1 IC50 Band
Method: 50 μl samples of serially diluted Human PDE10A1 enzyme were incubated with 50 μl of [^3H]-cAMP for 20 minutes (at 37° C.). Reactions were carried out in Greiner 96 deep well 1 ml master-block. The enzyme was diluted in 20 mM Tris HCl pH7.4 and [^3H]-cAMP was diluted in 10 mM MgCl2, 40 mM Tris.HCl pH 7.4. The reaction was terminated by denaturing the PDE enzyme (at 70° C.) after which [^3H]-5′-AMP was converted to [^3H]-adenosine by adding 25 μl snake venom nucleotidase and incubating for 10 minutes (at 37° C.). Adenosine, being neutral, was separated from charged cAMP or AMP by the addition of 200 μl Dowex resin. Samples were shaken for 20 minutes then centrifuged for 3 minutes at 2,500 r.p.m. 50 μl of supernatant was removed and added to 200 μl of MicroScint-20 in white plates (Greiner 96-well Optiplate) and shaken for 30 minutes before reading on Perkin Elmer TopCount Scintillation Counter.
To check inhibition profile 11 μl of serially diluted inhibitor was added to 50 μl of [^3H]-cAMP and 50 ul of diluted Human PDE10A1 and assay was carried out as in the enzyme activity assay. Data was analysed using Prism software (GraphPad Inc).

Human PDE10A1, sequence (Q9Y233 1-779 isoform Q9Y233-1): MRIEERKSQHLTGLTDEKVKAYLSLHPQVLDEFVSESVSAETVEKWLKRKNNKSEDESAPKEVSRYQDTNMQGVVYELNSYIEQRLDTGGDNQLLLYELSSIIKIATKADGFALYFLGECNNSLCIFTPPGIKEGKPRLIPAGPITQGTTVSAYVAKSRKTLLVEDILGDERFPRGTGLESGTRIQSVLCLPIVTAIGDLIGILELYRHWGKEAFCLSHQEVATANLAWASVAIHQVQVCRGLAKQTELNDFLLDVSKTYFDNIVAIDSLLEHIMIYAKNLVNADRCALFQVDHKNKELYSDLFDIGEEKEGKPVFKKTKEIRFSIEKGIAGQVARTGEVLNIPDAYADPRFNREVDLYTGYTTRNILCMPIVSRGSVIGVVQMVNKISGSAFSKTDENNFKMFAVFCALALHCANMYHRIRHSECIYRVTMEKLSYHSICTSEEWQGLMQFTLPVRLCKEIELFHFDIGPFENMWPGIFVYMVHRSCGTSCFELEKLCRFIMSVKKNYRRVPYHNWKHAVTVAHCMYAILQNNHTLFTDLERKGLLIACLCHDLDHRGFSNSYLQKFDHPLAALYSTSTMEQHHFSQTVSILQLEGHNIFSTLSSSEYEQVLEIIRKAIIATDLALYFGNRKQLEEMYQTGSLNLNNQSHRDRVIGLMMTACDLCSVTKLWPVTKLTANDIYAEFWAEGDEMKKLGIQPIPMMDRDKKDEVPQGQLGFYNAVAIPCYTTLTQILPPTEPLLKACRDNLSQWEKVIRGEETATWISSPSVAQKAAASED

`CC1(C)OC(c2ccnc(O)c2)=C(c2ccc(OCc3ccc4ccccc4n3)cc2)C1=O` [Example 130, 5-(2-hydroxypyridin-4-yl)-2,2-dimethyl-4-(4-(quinolin-2-ylmethoxy)phenyl)furan-3(2H)-one] and `CC1(C)OC(c2ccc(O)nc2)=C(c2ccc(OCc3ccc4ccccc4n3)cc2)C1=O` [Example 132, 5-(6-hydroxypyridin-3-yl)-2,2-dimethyl-4-(4-(quinolin-2-ylmethoxy)phenyl)furan-3(2H)-one] cannot be ordered by IC50: no more than 50 nM for the first, no more than 50 nM for the second.

`COc1ccc(C2=C(c3ccc(OCc4ccc5ccccc5n4)cc3)C(=O)C(C)(C)O2)cc1C#N` [Example 137, 5-(5,5-Dimethyl-4-oxo-3-(4-(quinolin-2-ylmethoxy)phenyl)-4,5-dihydrofuran-2-yl)-2-methoxybenzonitrile] and `COc1ccc(C2=C(c3ccc(OCc4ccc5ccccc5n4)cc3)C(=O)C(C)(C)O2)cc1F` [Example 134, 5-(3-fluoro-4-methoxyphenyl)-2,2-dimethyl-4-(4-(quinolin-2-ylmethoxy)phenyl)furan-3(2H)-one] cannot be ordered by IC50: no more than 50 nM for the first, no more than 50 nM for the second.

`COc1ccc(C2=C(c3ccc(OCc4ccc5ccccc5n4)cc3)C(=O)N(C)C2(C)C)cc1` [Example 73, 4-(4-methoxyphenyl)-1,5,5-trimethyl-3-(4-(quinolin-2-ylmethoxy)phenyl)-1H-pyrrol-2(5H)-one] and `COc1ccc(C2=C(c3ccc(OCc4ccc5ccccc5n4)cc3)C(=O)OC23CC3)cc1` [Example 126, 7-(4-methoxyphenyl)-6-(4-(quinolin-2-ylmethoxy)phenyl)-4-oxaspiro[2.4]hept-6-en-5-one] cannot be ordered by IC50: greater than 50 nM for the first, no more than 50 nM for the second.

`CC(=O)N(C(C)=O)c1ccc(C2=C(c3ccc(OCc4ccc5ccccc5n4)cc3)C(=O)C(C)(C)O2)cc1` [Example 819, N-acetyl-N-(4-(5,5-dimethyl-4-oxo-3-(4-(quinolin-2-ylmethoxy)phenyl)-4,5-dihydrofuran-2-yl)phenyl)acetamide] and `CC(=O)Nc1ccc(C2=C(c3ccc(OCc4ccc5ccccc5n4)cc3)C(=O)C(C)(C)O2)cc1` [Example 814, N-(4-(5,5-dimethyl-4-oxo-3-(4-(quinolin-2-ylmethoxy)phenyl)-4,5-dihydrofuran-2-yl)phenyl)acetamide] cannot be ordered by IC50: no more than 50 nM for the first, no more than 50 nM for the second.

`CC1(C)OC(c2ccc(OC(F)(F)F)cc2)=C(c2ccc(OCc3ccc4ccccc4n3)cc2)C1=O` [Example 155, 2,2-dimethyl-4-(4-(quinolin-2-ylmethoxy)phenyl)-5-(4-(trifluoromethoxy)phenyl)furan-3(2H)-one] and `CC1(C)OC(c2ccc(Cl)cc2)=C(c2ccc(OCc3ccc4ccccc4n3)cc2)C1=O` [Example 147, 5-(4-Chlorophenyl)-2,2-dimethyl-4-(4-(quinolin-2-ylmethoxy)phenyl) furan-3(2H)-one] cannot be ordered by IC50: no more than 50 nM for the first, no more than 50 nM for the second.

`O=C1C(c2ccc(OCc3ccc4ccccc4n3)cc2)=C(c2ccncc2)OC12CCCC2` [Example 824, 2-(pyridin-4-yl)-3-(4-(quinolin-2-ylmethoxy)phenyl)-1-oxaspiro[4.4]non-2-en-4-one] and `CC1(C)OC(c2ccc3ocnc3c2)=C(c2ccc(OCc3ccc4ccccc4n3)cc2)C1=O` [Example 821, 5-(benzo[d]oxazol-5-yl)-2,2-dimethyl-4-(4-(quinolin-2-ylmethoxy)phenyl)furan-3(2H)-one] cannot be ordered by IC50: no more than 50 nM for the first, no more than 50 nM for the second.

`CN1C(=O)C(c2ccc(OCc3ccc4ccccc4n3)cc2)=C(N2CCOCC2)C1=O` [Example 812, 1-Methyl-3-morpholino-4-(4-(quinolin-2-ylmethoxy)phenyl)-1H-pyrrole-2,5-dione] and `CC1(C)OC(c2ccc(NS(C)(=O)=O)cc2)=C(c2ccc(OCc3ccc4ccccc4n3)cc2)C1=O` [Example 815, N-(4-(5,5-dimethyl-4-oxo-3-(4-(quinolin-2-ylmethoxy)phenyl)-4,5-dihydrofuran-2-yl)phenyl)methanesulfonamide] cannot be ordered by IC50: greater than 50 nM for the first, no more than 50 nM for the second.

With `Cc1ccc(COc2ccc(C3=C(c4ccncc4)OC(C)(C)C3=O)cc2)nc1` [Example 808, 2,2-dimethyl-4-(4-((5-methylpyridin-2-yl)methoxy)phenyl)-5-(pyridin-4-yl) furan-3(2H)-one] the IC50 was no more than 50 nM.
